Data reported in PubChem BioAssay AID743395 (Broad Institute, 2014).

These compounds were tested on HepG2 viability, CellTiter-Glo ATP luminescence, 72 h (assay: viability loss in human hepatoma cells – cell-based, CellTiter-Glo luminescence, cherry-pick, set 2, cytotoxicity control, dose response (AID 743395)).

Row | SMILES | AC35
1 | CN(C)CCCNc1c2ccccc2nc2ccccc12 | 0.794 µM
2 | COc1cc(OC)c(-c2c3cc(O)c(=O)cc-3oc3cc(O)c(O)cc23)cc1OC | 13.2 µM
3 | O=C1c2ccccc2C(=O)c2c1cccc2N(CCO)CCO | 16.7 µM
4 | COc1cccc2c1C(=O)c1c(O)c3c(c(O)c1C2=O)C[C@@](O)(C(C)=O)C[C@@H]3O[C@H]1C[C@H](N)[C@H](O)[C@H](C)O1 | 0.156 µM
5 | NS(=O)(=O)c1ccc(S(=O)(=O)N(CCc2ccccc2)Cc2ccccn2)cc1 | 21.5 µM
6 | Cc1ccc(S(=O)(=O)Nc2ccc3c(c2)CC(=O)N([C@@H](C)CO)C[C@@H](C)[C@@H](CN(C)Cc2ccc(Cl)c(Cl)c2)O3)cc1 | 10.3 µM
7 | Cc1ccccc1-c1nc(CS(=O)(=O)CC(=O)NCc2ccccc2)c(C)o1 | 18.4 µM
8 | COc1ccc(/C=N/NC(=S)Nc2ccccc2[N+](=O)[O-])cc1O | 14.4 µM
9 | NC(=S)NN=Cc1nccc2c(N)cccc12 | 4.16 µM
10 | CN(CC1CCCO1)S(=O)(=O)c1ccc(C(=O)Nc2nnc(-c3ccccc3)o2)cc1 (stereo unspecified) | 9.86 µM
11 | Cc1cccc(N2CCN(C(=O)c3c(-c4ccccc4)noc3C)CC2)c1C | 4.42 µM
12 | C[C@H]1CN([C@@H](C)CO)C(=O)Cc2cc(NC(=O)Nc3ccc(C(F)(F)F)cc3)ccc2O[C@H]1CN(C)S(=O)(=O)c1ccccc1 | 10.1 µM
13 | COc1ccc2sc3cccc(NCCN(C)C)c3c(=O)c2c1 | 10.4 µM
14 | COc1c(O)cc2c(c1OC)-c1ccc(OC)c(=O)cc1C(NC(C)=O)CC2 (stereo unspecified) | 0.453 µM
15 | O=C(C[C@@H]1CC[C@@H]2[C@H](COC[C@H](O)CN2Cc2ccc(Oc3ccccc3)cc2)O1)N1CCN(c2ccccc2)CC1 | 7.84 µM
16 | O=C(Nc1cccc(F)c1)N1CCCCN2[C@@H](CO)[C@H](c3ccc(C#CC4CC4)cc3)[C@@H]2C1 | 10.1 µM
17 | COc1ccc(CCNc2c3ccccc3nc3ccccc23)cc1OC | 6.93 µM
18 | CCOC(=O)c1ccc(N2CCOCC2)c(NC(=O)c2c(-c3ccccc3)noc2C)c1 | 3.87 µM
19 | Cc1nc(C)c(C(=O)NN=Cc2ccc(N(CCCl)CCCl)cc2)s1 | 11.8 µM
20 | O=c1cc(-c2ccc(O)c(O)c2)oc2cc(O)cc(O)c12 | 19 µM
21 | C[C@@H]1CN([C@H](C)CO)S(=O)(=O)c2ccc(-c3ccccc3)cc2O[C@H]1CN(C)Cc1ccccn1 | 16.7 µM
22 | COc1ccccc1NC(=S)N(Cc1ccco1)Cc1cc2cc(C)cc(C)c2[nH]c1=O | 11.6 µM

Row | SMILES | AC35
23 | O=C1c2ccccc2C(=O)c2c1cccc2N1CCCC1 | 18.9 µM
24 | CC(C)n1cc(/C=C/c2cc[n+](C)cc2)c2ccccc21 | 11.2 µM
25 | C#Cc1cc(N2CCN(C(=O)c3ccoc3)CC2)n2nc(-c3cccc(Cl)c3)cc2n1 | 7.94 µM
26 | O=c1[nH]c(/C=C/c2ccccc2F)nc2ccccc12 | 9.06 µM
27 | Cc1c(C2Nc3ccccc3C2C)[nH]c2ccccc12 (stereo unspecified) | 6.86 µM
28 | COC(=O)c1ccc(S(=O)(=O)N2CCc3ccccc32)cc1 | 16.1 µM
29 | O=C1NC(=O)C(=Cc2c(Cl)cccc2Cl)C(=O)N1 | 22.2 µM
30 | CCOC(=O)c1ccc(Nc2sc(C(=O)c3cccc([N+](=O)[O-])c3)c(N)c2C#N)cc1 | 6.7 µM
31 | Cc1cccc(N2CCN(S(=O)(=O)c3cc(-c4cc(C)no4)ccc3C)CC2C)c1 (stereo unspecified) | 17.4 µM
32 | CC(=O)Nc1cccc(-c2ccnc3c2CC(C)(C(=O)NCc2cccs2)O3)c1 (stereo unspecified) | 2.49 µM
33 | COc1ccc(NC(=O)C(=O)NCC2CCCN2S(=O)(=O)c2cccs2)cc1 (stereo unspecified) | 12.8 µM
34 | Cc1nn2cc(-c3cccc(Cl)c3)cnc2c1Br | 11.1 µM
35 | O=C(Nc1ccc(OC(F)(F)F)cc1)c1ccc2c(c1)no[n+]2[O-] | 17.6 µM
36 | COc1ccc(CNC(=O)c2c(C)oc3c2C(=O)c2ccccc2C3=O)cc1 | 2.36 µM
37 | COc1cccc(/C=N/NC(=O)C(=O)Nc2ccccc2OC(F)(F)C(F)F)c1O | 15 µM
38 | O=[N+]([O-])c1ccc(N=Nc2c(Cl)cc(O)cc2Cl)cc1 | 4.24 µM
39 | CN1C(=CC=C2C=C(I)C(=O)C(I)=C2)C(C)(C)c2ccccc21 | 3.56 µM
40 | Cc1ccc(C)c(CSc2nc3[nH]ncc3c(=O)[nH]2)c1 | 5.46 µM
41 | Cc1ccc(-n2nnnc2SCC(=O)NC(C(=O)O)(c2ccccc2)c2ccccc2)cc1C | 15 µM
42 | COc1cc2c(c(Br)c1N)-c1cc(Br)c(N)cc1C2=O | 0.431 µM
43 | CCCCn1c(CN2CCN(c3cccc(Cl)c3)CC2)nc2c1c(=O)[nH]c(=O)n2C | 12.3 µM
44 | Nc1c(C(=O)c2ccco2)oc2ccccc12 | 15.8 µM

Row | SMILES | AC35
45 | COCCCN=C1NN=C(c2cc(C)n(Cc3ccco3)c2C)CS1 | 6.71 µM
46 | CC(=O)Nc1cccc(-c2ccnc3c2CC(C)(C(=O)Nc2ccc4c(c2)OCO4)O3)c1 (stereo unspecified) | 17.4 µM
47 | CC(=O)Oc1c(C)cc(Cl)cc1C(=O)Nc1ccc([N+](=O)[O-])cc1Cl | 0.712 µM
48 | N#CC1=C(N)Oc2cc(N)ccc2C1c1cccc(F)c1 (stereo unspecified) | 6.38 µM
49 | N#Cc1c(-c2ccc(F)cc2)c(-c2ccc(F)cc2)nn(CCO)c1=O | 4.03 µM
50 | Nc1ccc2c3c(cccc13)C(=O)N(c1ccccc1)C2=O | 10.7 µM
51 | CCN(CC)c1ccc(/C=N/NC(=O)c2cnccn2)c(O)c1 | 1.61 µM
52 | CCC1=C(CC2NCCc3ccccc32)CC2c3cc(OC)c(OC)cc3CCN2C1 (stereo unspecified) | 18.2 µM
53 | CN1c2ccc(-c3ccc(F)cc3)cc2[C@H]2[C@H](CCN2S(=O)(=O)c2cccc(F)c2)[C@@H]1CO | 17.3 µM
54 | O=C(NCCOc1ccccc1F)c1cc([N+](=O)[O-])ccc1N1CCOCC1 | 13.6 µM
55 | CN1C(=O)NC(=O)C2(CCCC2)C1=O | 9.42 µM
56 | COc1ccc(-c2ccnc(-c3ccc(O)cc3)n2)cc1 | 10.1 µM
57 | C/C(=N\NC(=O)c1c(Cl)c(C)nn1C)c1ccc(NC(=O)C2CCC2)cc1 | 4.43 µM
58 | O=C(c1cccc(S(=O)(=O)N2CCN(c3ccc(F)cc3)CC2)c1)N1CCCC(C(F)(F)F)C1 (stereo unspecified) | 9.64 µM
59 | Cc1ccc(C(=O)N/N=C/c2cc(Br)ccc2O)cn1 | 17.8 µM
60 | COc1cccc(-c2ccc(C3[C@@H]4CN(S(=O)(=O)c5cccc(OC)c5)C[C@H]3N4)cc2)c1 (stereo partly specified) | 8.91 µM
61 | CCOC(=O)c1cc2c(=Cc3ccc(N(C)C)cc3)c3ccccc3n2[n+]1C | 16.6 µM
62 | COc1cccc(S(=O)(=O)N2C[C@@H]3N[C@H](C2)C3c2ccc(-c3cccc(C)c3)cc2)c1 (stereo partly specified) | 12 µM
63 | CCSC(=O)N1c2ccc(OC)cc2C=CC1C#N (stereo unspecified) | 7.54 µM
64 | Cc1cc(N/N=C/c2ccccc2O)c2ccccc2n1 | 19.7 µM
65 | O=C(NCCOc1ccccc1)c1cc([N+](=O)[O-])ccc1N1CCOCC1 | 6.79 µM
66 | COc1ccc(OC)c(C(=O)Cn2nnc(-c3ccc(N4CCOCC4)cc3)n2)c1 | 16.6 µM

Row | SMILES | AC35
67 | CN(C)CCNc1ccc2ncn3c4ccc(O)cc4c(=O)c1c23 | 2.3 µM
68 | CCN(Cc1ccccc1)c1ccc(/C=N/N=C(N)N)cc1 | 6.82 µM
69 | CC/C=C/CC(=O)N[C@@H](c1ccccc1)[C@@H](O)C(=O)O[C@H]1C[C@@]2(O)[C@@H](OC(=O)c3ccccc3)C3[C@](C)(C(=O)[C@H](OC(C)=O)C(=C1C)C2(C)C)[C@@H](O)C[C@H]1OC[C@@]31OC(C)=O (stereo partly specified) | 1.98 µM
70 | O=c1ccc2[n+]([O-])c3ccc(O)cc3oc-2c1 | 13.2 µM
71 | CC(=NNC(=S)N1CC2CCC(CC2)C1)c1cnccn1 | 0.171 µM
72 | O=C1c2cccc(NCCCNCCO)c2C(=O)c2cccc(NCCCNCCO)c21 | 3.61 µM
73 | CCOC(=O)c1c(NC(=O)C2c3ccccc3Oc3ccccc32)sc(C(C)=O)c1C | 17.6 µM
74 | CCc1cc(-c2nnn(CCC3COCCO3)c2CC)ccc1-c1cn(Cc2ccc3ccccc3c2)nn1 (stereo unspecified) | 15.8 µM
75 | CCC1=Nc2cc(C(=O)NCC3CCCO3)ccc2Sc2ccc(Cl)cc21 (stereo unspecified) | 10.6 µM
76 | COc1cccc(-c2cc3nc(-c4ccccc4)cc(=O)n3[nH]2)c1 | 7.55 µM
77 | COc1c(C=O)c2c(c(OC)c1OC)-c1ccc(OC)c(=O)cc1C(NC(C)=O)CC2 (stereo unspecified) | 3.12 µM
78 | CCOc1ccc(NC(=O)c2cc(OC)nc3ccccc23)cc1 | 14.3 µM
79 | Cn1cccc1/C=C1\SC(=Nc2cccc(O)c2)NC1=O | 14.2 µM
80 | COc1cc(OC)cc(C(=O)N[C@H](C(=O)Nc2nc3ccccc3[nH]2)C(C)C)c1 | 10.2 µM
81 | CC1=NN(c2ccccc2)C(=O)C1N=Nc1cccc(O)c1 (stereo unspecified) | 19 µM
82 | Cc1ccccc1S(=O)(=O)N1C[C@@H]2N[C@H](C1)C2c1ccc(-c2cccc(C#N)c2)cc1 (stereo partly specified) | 9.94 µM
83 | COc1cccc(S(=O)(=O)N(C)C[C@@H]2Oc3cc(C4=CCCC4)ccc3S(=O)(=O)N([C@H](C)CO)C[C@H]2C)c1 | 20.3 µM
84 | Cc1ccc(/C=N/NC(=O)c2ccc3ccccc3c2)s1 | 9.16 µM
85 | CCOC(=O)c1sc(Nc2nc(C)cc(C)n2)nc1C | 11.3 µM
86 | COc1ccc2c(c1)sc(N)[n+]2Cc1cc(C)cc2cccnc12 | 12.4 µM
87 | COc1cc(OC)cc(C(=O)c2c(C)c(C#N)c3ccccn23)c1 | 9.29 µM
88 | CCOC(=O)N1CCC(NC(=O)c2ccc3c(c2)N=C(C)c2c(C)ccc(C)c2S3)CC1 | 2.44 µM

Row | SMILES | AC35
89 | COc1ccc(CCNc2ncnc3c2oc2ccccc23)cc1OC | 11.3 µM
90 | COCC(=O)N1CC2(CCN(Cc3ccccc3)CC2)c2c([nH]c3cc(OC)ccc23)[C@H]1CO | 5.27 µM
91 | COc1ccc(OC)c(Nc2nc(-c3sc(NC(=O)C(C)(C)C)nc3C)cs2)c1 | 9.87 µM
92 | O=C1C=CCC(/C=C/c2ccccc2)O1 (stereo unspecified) | 19 µM
93 | Oc1ccc2ccccc2c1C=NNc1ccccn1 | 7.59 µM
94 | O=C(NN=C1CCCC1)c1[nH]c2ccc(Cl)cc2c1-c1ccccc1 | 18.9 µM
95 | COc1cc(C#Cc2ccc3cc(CCCO)oc(=O)c3c2)cc(OC)c1 | 6.25 µM
96 | O=C(C1CCCC1)N1CC(=O)N2[C@H](CO)[C@@H](c3ccc(-c4ccccc4F)cc3)[C@@H]2C1 | 16.3 µM
97 | COc1cc(/C=C2/SC(=S)N(Cc3ccccc3)C2=O)cc(Cl)c1O | 12.5 µM
98 | COc1cccc(C2c3cc4c(cc3OC(NNC(N)=O)C2C)OCO4)c1O (stereo unspecified) | 14.3 µM
99 | CN(C)CCNC(=O)c1ccc(Cl)c2cc3ccccc3nc12 | 2.59 µM
100 | COc1ccc(C2=Nn3c(nnc3-c3ccccc3F)SC2)cc1OC1CCOC1 (stereo unspecified) | 13.2 µM
101 | CC(C)CC#Cc1ccc([C@@H]2[C@@H](CO)N3CCCCN(C(=O)NC4CCCC4)C[C@H]23)cc1 | 9.9 µM
102 | C/C(=N\Nc1ncnc2sc(C)c(C)c12)c1ccccn1 | 0.572 µM
103 | NC(=O)N=Nc1c2[nH]c3ccccc3nc-2c2ccccc12 | 16.6 µM
104 | CC(=O)c1cccc(-c2ccnc3c2CC(C(=O)NCc2ccco2)O3)c1 (stereo unspecified) | 6.09 µM
105 | CC1(C(=O)NCc2ccco2)Cc2c(-c3ccc4c(c3)OCO4)ccnc2O1 (stereo unspecified) | 9.85 µM
106 | CC(=O)Nc1ccc2cc3ccc(NC(C)=O)cc3nc2c1 | 11.6 µM
